The compounds below were run against T1, human TLR9 (Homo sapiens, UniProt Q9NR96) (assay: TLR9 inhibition reporter assay (HEK-Blue cells, SEAP reporter, ODN2006 stimulation)). Details: HEK-Blue cells overexpressing human TLR9, ODN2006 5 nM.
T1 construct: host or cells: HEK-Blue cells
T1 sequence (Q9NR96 26-1032): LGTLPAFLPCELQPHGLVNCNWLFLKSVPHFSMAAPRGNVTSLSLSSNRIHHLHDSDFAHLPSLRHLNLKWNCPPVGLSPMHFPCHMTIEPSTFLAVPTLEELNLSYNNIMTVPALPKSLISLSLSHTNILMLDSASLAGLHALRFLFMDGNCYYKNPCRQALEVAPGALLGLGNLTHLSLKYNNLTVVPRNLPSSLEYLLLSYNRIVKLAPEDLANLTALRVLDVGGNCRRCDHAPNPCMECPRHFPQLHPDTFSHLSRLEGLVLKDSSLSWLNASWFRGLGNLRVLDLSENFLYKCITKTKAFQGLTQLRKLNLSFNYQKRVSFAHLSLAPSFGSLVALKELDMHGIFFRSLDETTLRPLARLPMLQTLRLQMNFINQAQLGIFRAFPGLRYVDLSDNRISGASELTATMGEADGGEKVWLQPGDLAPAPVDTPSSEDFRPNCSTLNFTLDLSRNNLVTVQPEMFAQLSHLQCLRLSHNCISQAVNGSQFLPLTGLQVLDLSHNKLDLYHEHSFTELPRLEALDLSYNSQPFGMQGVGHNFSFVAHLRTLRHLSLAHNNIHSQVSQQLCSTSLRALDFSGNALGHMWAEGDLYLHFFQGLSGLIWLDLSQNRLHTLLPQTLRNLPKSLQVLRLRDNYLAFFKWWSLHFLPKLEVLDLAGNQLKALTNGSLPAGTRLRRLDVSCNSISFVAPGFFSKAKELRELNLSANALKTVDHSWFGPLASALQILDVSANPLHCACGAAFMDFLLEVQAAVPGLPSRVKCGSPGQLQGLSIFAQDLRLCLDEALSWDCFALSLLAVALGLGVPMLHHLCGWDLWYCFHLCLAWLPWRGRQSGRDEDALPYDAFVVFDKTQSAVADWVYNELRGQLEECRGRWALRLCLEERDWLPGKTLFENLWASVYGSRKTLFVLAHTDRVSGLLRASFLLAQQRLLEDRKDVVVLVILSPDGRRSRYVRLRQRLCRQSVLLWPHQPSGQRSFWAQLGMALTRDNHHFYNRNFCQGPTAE
Format: cell-based
Procedure, shortened: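 Compound treatment: 30 min, RT, 0.05 nM–50 μM final. Agonist: TLR7 gardiquimod 7.5 μM; TLR8 R848 15.9 μM; TLR9 ODN2006 5 nM. Incubation 22 h, 37 °C, 5% CO2. Readout SEAP, HEK-Blue Detection.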
With `CCc1c(-c2ccc(OC)c(OC)c2)[nH]c2ccc(C3CCN(C4CCN(Cc5c[nH]cn5)CC4)CC3)cc12` [Example 125, 5-(1′-((1H-imidazol-4-yl)methyl)-[1,4′-bipiperidin]-4-yl)-2-(3,4-dimethoxyphenyl)-3-ethyl-1H-indole] the IC50 was 410 nM.
Compound `CCc1c(-c2ccc(OC)c(OC)c2)[nH]c2ccc(C3CCN(C4CCN(Cc5coc(C)n5)CC4)CC3)cc12` [Example 126, 4-((4-(2-(3,4-dimethoxyphenyl)-3-ethyl-1H-indol-5-yl)-[1,4′-bipiperidin]-1′-yl)methyl)-2-methyloxazole] has an IC50 of 481 nM.
`CCOC(=O)c1c(C)[nH]c(CN2CCC(N3CCC(c4ccc5[nH]c(-c6ccc(OC)c(OC)c6)c(CC)c5c4)CC3)CC2)c1C` [Example 127, ethyl 5-((4-(2-(3,4-dimethoxyphenyl)-3-ethyl-1H-indol-5-yl)-[1,4′-bipiperidin]-1′-yl)methyl)-2,4-dimethyl-1H-pyrrole-3-carboxylate] was tested, and the IC50 was 267 nM.
Compound `CCc1c(-c2ccc(OC)c(OC)c2)[nH]c2ccc(C3CCN(C4CCN(Cc5cc6ccccc6[nH]5)CC4)CC3)cc12` [Example 128, 5-(1′-((1H-indol-2-yl)methyl)-[1,4′-bipiperidin]-4-yl)-2-(3,4-dimethoxyphenyl)-3-ethyl-1H-indole] has an IC50 of 947 nM.
`CCc1c(-c2ccc(OC)c(OC)c2)[nH]c2ccc(C3CCN(C4CCN(Cc5csnn5)CC4)CC3)cc12` [Example 130, 4-((4-(2-(3,4-dimethoxyphenyl)-3-ethyl-1H-indol-5-yl)-[1,4′-bipiperidin]-1′-yl)methyl)-1,2,3-thiadiazole] was tested, and the IC50 was 6230 nM.
In the case of `CCc1c(-c2ccc(OC)c(OC)c2)[nH]c2ccc(C3CCN(C4CCN(Cc5cc(C)n[nH]5)CC4)CC3)cc12` [Example 131, 2-(3,4-dimethoxyphenyl)-3-ethyl-5-(1′-((3-methyl-1H-pyrazol-5-yl)methyl)-[1,4′-bipiperidin]-4-yl)-1H-indole], the IC50 is reported as 447 nM.
Work on `CCc1c(-c2ccc(OC)c(OC)c2)[nH]c2ccc(C3CCN(C4CCN(Cc5cc(C)nn5C)CC4)CC3)cc12` [Example 132, 2-(3,4-dimethoxyphenyl)-5-(1′-((1,3-dimethyl-1H-pyrazol-5-yl)methyl)-[1,4′-bipiperidin]-4-yl)-3-ethyl-1H-indole] yielded an IC50 of 695 nM.
With `CCc1c(-c2ccc(OC)c(OC)c2)[nH]c2ccc(C3CCN(C4CCN(Cc5ccn(C)n5)CC4)CC3)cc12` [Example 133, 2-(3,4-dimethoxyphenyl)-3-ethyl-5-(1′-((1-methyl-1H-pyrazol-3-yl)methyl)-[1,4′-bipiperidin]-4-yl)-1H-indole] the IC50 was 657 nM.
`CCc1c(-c2ccc(OC)c(OC)c2)[nH]c2ccc(C3CCN(C4CCN(Cc5cc6ccccc6n5C)CC4)CC3)cc12` [Example 137, 2-(3,4-dimethoxyphenyl)-3-ethyl-5-(1′-((1-methyl-1H-indol-2-yl)methyl)-[1,4′-bipiperidin]-4-yl)-1H-indole] was tested, and the IC50 was 2600 nM.
For `CCc1c(-c2ccc(OC)c(OC)c2)[nH]c2ccc(C3CCN(C4CCN(Cc5c(C)noc5C)CC4)CC3)cc12` [Example 138, 4-((4-(2-(3,4-dimethoxyphenyl)-3-ethyl-1H-indol-5-yl)-[1,4′-bipiperidin]-1′-yl)methyl)-3,5-dimethylisoxazole], the IC50 was 1400 nM.
Work on `CCc1c(-c2ccc(OC)c(OC)c2)[nH]c2ccc(C3CCN(C4CCN(Cc5sccc5C)CC4)CC3)cc12` [Example 139, 2-(3,4-dimethoxyphenyl)-3-ethyl-5-(1′-((3-methylthiophen-2-yl)methyl)-[1,4′-bipiperidin]-4-yl)-1H-indole] yielded an IC50 of 444 nM.
`CCc1c(-c2ccc(OC)c(OC)c2)[nH]c2ccc(C3CCN(C4CCN(Cc5ccc(C)s5)CC4)CC3)cc12` [Example 140, 2-(3,4-dimethoxyphenyl)-3-ethyl-5-(1′-((5-methylthiophen-2-yl)methyl)-[1,4′-bipiperidin]-4-yl)-1H-indole] was tested, and the IC50 was 479 nM.
In the case of `CCc1c(-c2ccc(OC)c(OC)c2)[nH]c2ccc(C3CCN(C4CCN(Cc5ccc(-c6ccccc6)s5)CC4)CC3)cc12` [Example 141, 2-(3,4-dimethoxyphenyl)-3-ethyl-5-(1′-((5-phenylthiophen-2-yl)methyl)-[1,4′-bipiperidin]-4-yl)-1H-indole], the IC50 is reported as ≥ 50000 nM.
Work on `CCc1c(-c2ccc(OC)c(OC)c2)[nH]c2ccc(C3CCN(C4CCN(Cc5ccsc5)CC4)CC3)cc12` [Example 142, 2-(3,4-dimethoxyphenyl)-3-ethyl-5-(1′-(thiophen-3-ylmethyl)-[1,4′-bipiperidin]-4-yl)-1H-indole] yielded an IC50 of 133 nM.
Work on `CCc1c(-c2ccc(OC)c(OC)c2)[nH]c2ccc(C3CCN(C4CCN(Cc5ccc(-c6ccccc6)o5)CC4)CC3)cc12` [Example 143, 2-(3,4-dimethoxyphenyl)-3-ethyl-5-(1′-((5-phenylfuran-2-yl)methyl)-[1,4′-bipiperidin]-4-yl)-1H-indole] yielded an IC50 of 730 nM.
`CCc1c(-c2ccc(OC)c(OC)c2)[nH]c2ccc(C3CCN(C4CCN(Cc5cc(C)n(C)n5)CC4)CC3)cc12` [Example 144, 2-(3,4-dimethoxyphenyl)-5-(1′-((1,5-dimethyl-1H-pyrazol-3-yl)methyl)-[1,4′-bipiperidin]-4-yl)-3-ethyl-1H-indole] showed an IC50 of 495 nM.
Compound `CCc1c(-c2ccc(OC)c(OC)c2)[nH]c2ccc(C3CCN(C4CCN(Cc5ccccc5)CC4)CC3)cc12` [Example 147, 5-(1′-benzyl-[1,4′-bipiperidin]-4-yl)-2-(3,4-dimethoxyphenyl)-3-ethyl-1H-indole] has an IC50 of 552 nM.
Work on `CCc1c(-c2ccc(OC)c(OC)c2)[nH]c2ccc(C3CCN(C4CCN(CC)CC4)CC3)cc12` [Example 149, 2-(3,4-dimethoxyphenyl)-3-ethyl-5-(1′-ethyl-[1,4′-bipiperidin]-4-yl)-1H-indole] yielded an IC50 of 152 nM.
`CCc1c(-c2ccc(OC)c(OC)c2)[nH]c2ccc(C3CCN(C4CCN(C)CC4)CC3)cc12` [Example 150, 2-(3,4-dimethoxyphenyl)-3-ethyl-5-(1′-methyl-[1,4′-bipiperidin]-4-yl)-1H-indole] was tested, and the IC50 was 2340 nM.
For `CCc1c(-c2ccc(OC)c(OC)c2)[nH]c2ccc(C3CCN(C4CCN(C(C)C)CC4)CC3)cc12` [Example 151, 2-(3,4-dimethoxyphenyl)-3-ethyl-5-(1′-isopropyl-[1,4′-bipiperidin]-4-yl)-1H-indole], the IC50 was 556 nM.
In the case of `CCc1c(-c2ccc(OC)c(OC)c2)[nH]c2ccc(C3CCN(C4CCN(C5CCCC5)CC4)CC3)cc12` [Example 152, 5-(1′-cyclopentyl-[1,4′-bipiperidin]-4-yl)-2-(3,4-dimethoxyphenyl)-3-ethyl-1H-indole], the IC50 is reported as 233 nM.
For `CCc1c(-c2ccc(OC)c(OC)c2)[nH]c2ccc(C3CCN(C4CCN(Cc5cnc(C)[nH]5)CC4)CC3)cc12` [Example 153, 2-(3,4-dimethoxyphenyl)-3-ethyl-5-(1′-((2-methyl-1H-imidazol-5-yl)methyl)-[1,4′-bipiperidin]-4-yl)-1H-indole], the IC50 was 547 nM.
`CCc1c(-c2ccc(OC)c(OC)c2)[nH]c2ccc(C3CCN(CCNC)CC3)cc12` [Example 155, 2-(4-(2-(3,4-dimethoxyphenyl)-3-ethyl-1H-indol-5-yl)piperidin-1-yl)-N-methylethanamine di-trifluoroacetic acid] was tested, and the IC50 was 492 nM.
In the case of `CCc1c(-c2ccc(OC)c(OC)c2)[nH]c2ccc(C3CCN(C(=O)CNCCO)CC3)cc12` [Example 159, 1-(4-(2-(3,4-dimethoxyphenyl)-3-ethyl-1H-indol-5-yl)piperidin-1-yl)-2-((2-hydroxyethyl)amino) ethan-1-one], the IC50 is reported as 3380 nM.
In the case of `CCc1c(-c2ccc(OC)c(OC)c2)[nH]c2ccc(C3CCN(C(=O)CNCC#N)CC3)cc12` [Example 161, 2-((2-(4-(2-(3,4-dimethoxyphenyl)-3-ethyl-1H-indol-5-yl)piperidin-1-yl)-2-oxoethyl)amino)acetonitrile], the IC50 is reported as ≥ 50000 nM.
`CCc1c(-c2ccc(OC)c(OC)c2)[nH]c2ccc(C3CCN(C(=O)CNC4CCC(N(C)C)CC4)CC3)cc12` (stereo not drawn) [Example 162, 1-(4-(2-(3,4-dimethoxyphenyl)-3-ethyl-1H-indol-5-yl)piperidin-1-yl)-2-((4-(dimethylamino)cyclohexyl)amino)ethan-1-one] was tested, and the IC50 was 402 nM.
In the case of `CCc1c(-c2ccc(OC)c(OC)c2)[nH]c2ccc(C3CCN(C(=O)CN4CCCC(C(=O)N(CC)CC)C4)CC3)cc12` (stereo not drawn) [Example 168, 1-(2-(4-(2-(3,4-dimethoxyphenyl)-3-ethyl-1H-indol-5-yl)piperidin-1-yl)-2-oxoethyl)-N,N-diethylpiperidine-3-carboxamide], the IC50 is reported as 870 nM.
